From US12465594B2 (Brown University, priority 2018, dated 2025)

Tests used:
SERT = SERT (Homo sapiens, UniProt P31645); experiment: PDSP binding assay; settings: 10 μM, quadruplicate, cloned target
CYP2D6 = CYP2D6 (Homo sapiens, UniProt P10635); experiment: in vitro; settings: microsomes
CRF2 = CRF2 (Homo sapiens, UniProt Q13324); experiment: CRF2 Ca2+ assay (absence of CRFBP(10 kD)); settings: presence of EC80 CRF
NET = NET (Homo sapiens, UniProt P23975); experiment: PDSP binding assay; settings: 10 μM, quadruplicate, cloned target
NET, sequence (P23975 whole entry): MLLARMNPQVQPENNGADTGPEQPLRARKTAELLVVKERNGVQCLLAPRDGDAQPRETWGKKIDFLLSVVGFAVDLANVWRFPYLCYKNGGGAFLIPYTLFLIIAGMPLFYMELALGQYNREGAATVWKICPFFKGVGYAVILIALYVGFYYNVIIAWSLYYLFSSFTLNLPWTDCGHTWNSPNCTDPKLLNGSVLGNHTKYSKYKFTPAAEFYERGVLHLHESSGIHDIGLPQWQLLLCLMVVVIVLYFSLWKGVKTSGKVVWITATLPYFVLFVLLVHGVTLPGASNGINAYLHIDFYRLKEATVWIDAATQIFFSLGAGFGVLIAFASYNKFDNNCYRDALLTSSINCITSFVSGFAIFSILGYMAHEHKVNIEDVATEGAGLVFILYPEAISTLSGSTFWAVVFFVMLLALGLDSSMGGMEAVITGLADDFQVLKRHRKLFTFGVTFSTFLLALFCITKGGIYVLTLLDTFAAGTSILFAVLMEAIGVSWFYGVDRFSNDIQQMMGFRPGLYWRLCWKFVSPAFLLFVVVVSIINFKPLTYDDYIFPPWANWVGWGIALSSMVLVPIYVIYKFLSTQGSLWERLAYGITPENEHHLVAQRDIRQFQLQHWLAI

D5 = D5 (Homo sapiens, UniProt P21918); experiment: PDSP binding assay; settings: 10 μM, quadruplicate, cloned target
D5, sequence (P21918 whole entry): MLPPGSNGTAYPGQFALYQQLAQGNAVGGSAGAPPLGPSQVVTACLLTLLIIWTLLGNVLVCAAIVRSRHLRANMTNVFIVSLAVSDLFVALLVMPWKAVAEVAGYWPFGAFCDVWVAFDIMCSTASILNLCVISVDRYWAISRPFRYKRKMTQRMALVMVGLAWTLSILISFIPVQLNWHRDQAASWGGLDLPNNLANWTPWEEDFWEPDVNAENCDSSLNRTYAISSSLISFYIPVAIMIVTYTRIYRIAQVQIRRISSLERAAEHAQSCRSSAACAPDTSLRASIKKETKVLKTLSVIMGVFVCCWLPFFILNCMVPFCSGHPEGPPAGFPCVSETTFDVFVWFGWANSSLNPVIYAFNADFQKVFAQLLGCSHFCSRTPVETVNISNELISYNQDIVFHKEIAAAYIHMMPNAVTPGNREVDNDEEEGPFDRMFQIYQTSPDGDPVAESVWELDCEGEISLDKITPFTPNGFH

CYP2D6, sequence (P10635 whole entry): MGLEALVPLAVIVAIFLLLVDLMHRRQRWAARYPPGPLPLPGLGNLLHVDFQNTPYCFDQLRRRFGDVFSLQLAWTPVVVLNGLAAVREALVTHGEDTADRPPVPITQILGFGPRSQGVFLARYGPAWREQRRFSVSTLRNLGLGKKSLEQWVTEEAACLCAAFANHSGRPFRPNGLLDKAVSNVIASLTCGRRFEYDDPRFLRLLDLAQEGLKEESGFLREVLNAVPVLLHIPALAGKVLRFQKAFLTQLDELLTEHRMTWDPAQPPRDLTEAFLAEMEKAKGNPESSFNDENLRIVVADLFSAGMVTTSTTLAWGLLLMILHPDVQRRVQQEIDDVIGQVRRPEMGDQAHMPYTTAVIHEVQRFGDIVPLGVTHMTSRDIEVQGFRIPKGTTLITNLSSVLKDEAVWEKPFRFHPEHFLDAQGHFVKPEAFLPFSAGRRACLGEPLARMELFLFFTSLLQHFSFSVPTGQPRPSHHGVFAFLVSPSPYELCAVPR
SERT, sequence (P31645 whole entry, species assumed): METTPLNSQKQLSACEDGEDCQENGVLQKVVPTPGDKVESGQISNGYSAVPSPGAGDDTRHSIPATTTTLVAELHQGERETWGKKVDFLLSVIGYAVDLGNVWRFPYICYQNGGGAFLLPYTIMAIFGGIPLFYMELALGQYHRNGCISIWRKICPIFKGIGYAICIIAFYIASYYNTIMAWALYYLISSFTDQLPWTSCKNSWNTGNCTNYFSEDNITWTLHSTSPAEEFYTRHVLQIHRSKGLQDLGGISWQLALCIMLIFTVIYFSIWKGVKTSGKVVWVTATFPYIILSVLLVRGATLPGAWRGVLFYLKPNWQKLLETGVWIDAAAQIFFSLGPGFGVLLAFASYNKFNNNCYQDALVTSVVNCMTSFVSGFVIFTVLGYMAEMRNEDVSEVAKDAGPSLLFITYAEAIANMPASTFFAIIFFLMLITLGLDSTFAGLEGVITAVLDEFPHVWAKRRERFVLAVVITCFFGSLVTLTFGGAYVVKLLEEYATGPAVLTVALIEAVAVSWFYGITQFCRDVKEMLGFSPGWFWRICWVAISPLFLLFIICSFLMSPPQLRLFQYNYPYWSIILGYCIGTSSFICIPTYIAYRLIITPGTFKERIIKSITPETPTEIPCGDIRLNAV
CRF2, sequence (Q13324 whole entry): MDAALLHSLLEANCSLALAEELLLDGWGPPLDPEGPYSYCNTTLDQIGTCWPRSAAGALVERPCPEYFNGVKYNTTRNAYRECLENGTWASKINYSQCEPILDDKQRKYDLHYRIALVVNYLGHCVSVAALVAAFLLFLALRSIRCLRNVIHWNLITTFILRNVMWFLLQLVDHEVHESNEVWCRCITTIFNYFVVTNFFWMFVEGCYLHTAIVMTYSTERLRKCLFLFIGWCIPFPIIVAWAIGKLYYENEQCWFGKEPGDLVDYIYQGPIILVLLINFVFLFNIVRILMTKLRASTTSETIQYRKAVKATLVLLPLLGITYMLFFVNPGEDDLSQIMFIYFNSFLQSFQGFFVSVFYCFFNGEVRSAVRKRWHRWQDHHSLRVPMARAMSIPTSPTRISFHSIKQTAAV

Brc1ccccc1-c1nnc(CSc2nnnn2-c2ccccc2)o1 [MLS-0046818]
Activity at SERT (binding assay) (SERT): −14% | inhibition at 10 µM (CYP2D6): -128% | Activity toward CRF2 in the absence of CRFBP(10 kD) (CRF2): inactive | Activity at NET (binding assay) (NET): 8% | Activity at D5 (binding assay) (D5): 12%

CC(C)Cn1c(SCC(=O)N2CCc3ccccc3C2)nc2cc(Cl)ccc2c1=O [MLS-0219419]
Activity at SERT (binding assay) (SERT): −14% | inhibition at 10 µM (CYP2D6): -21% | Activity at NET (binding assay) (NET): 12% | Activity at D5 (binding assay) (D5): −15%
